Results: PubChem BioAssay (NCI)
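48-hour exposure; five concentrations; linearly interpolated endpoints. TGI marks complete inhibition of growth.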

Tests used:
Assay in all cases: DTP human tumour cell line panel, 48 h
HCT-15 colon = tested on: HCT-15 colon
SF-539 CNS = tested on: SF-539 CNS
HOP-18 NSCLC = tested on: HOP-18 NSCLC
DMS 273 small cell lung = tested on: DMS 273 small cell lung
HCT-116 colon = tested on: HCT-116 colon
U251 CNS = tested on: U251 CNS
OVCAR-3 ovarian = tested on: OVCAR-3 ovarian
NCI-H23 lung = tested on: NCI-H23 lung
OVCAR-8 ovarian = tested on: OVCAR-8 ovarian
KM20L2 colon = tested on: KM20L2 colon
HOP-92 NSCLC = tested on: HOP-92 NSCLC
IGROV1 ovarian = tested on: IGROV1 ovarian
NCI-H522 lung = tested on: NCI-H522 lung
TK-10 renal = tested on: TK-10 renal
NCI-H226 lung = tested on: NCI-H226 lung
SNB-19 CNS = tested on: SNB-19 CNS
HT29 colon = tested on: HT29 colon
SR leukemia = tested on: SR leukemia
SW-620 colon = tested on: SW-620 colon
DLD-1 colon = tested on: DLD-1 colon
RXF 393 renal = tested on: RXF 393 renal
SK-MEL-28 melanoma = tested on: SK-MEL-28 melanoma
UACC-62 melanoma = tested on: UACC-62 melanoma
K-562 leukemia = tested on: K-562 leukemia
UO-31 renal = tested on: UO-31 renal
A549 NSCLC = tested on: A549 NSCLC
UACC-257 melanoma = tested on: UACC-257 melanoma
LXFL 529 NSCLC = tested on: LXFL 529 NSCLC
HL-60(TB) leukemia = tested on: HL-60(TB) leukemia
CAKI-1 renal = tested on: CAKI-1 renal
RPMI-8226 leukemia = tested on: RPMI-8226 leukemia
SN12C renal = tested on: SN12C renal
MALME-3M melanoma = tested on: MALME-3M melanoma
CCRF-CEM leukemia = tested on: CCRF-CEM leukemia
M19-MEL melanoma = tested on: M19-MEL melanoma
DMS 114 small cell lung = tested on: DMS 114 small cell lung
LOX IMVI melanoma = tested on: LOX IMVI melanoma
SNB-78 CNS = tested on: SNB-78 CNS
EKVX NSCLC = tested on: EKVX NSCLC
SF-295 CNS = tested on: SF-295 CNS
KM12 colon = tested on: KM12 colon
OVCAR-5 ovarian = tested on: OVCAR-5 ovarian
M14 melanoma = tested on: M14 melanoma
NCI-H460 lung = tested on: NCI-H460 lung
SK-MEL-5 melanoma = tested on: SK-MEL-5 melanoma
ACHN renal = tested on: ACHN renal
HCC-2998 colon = tested on: HCC-2998 colon
OVCAR-4 ovarian = tested on: OVCAR-4 ovarian
SNB-75 CNS = tested on: SNB-75 CNS
HOP-62 NSCLC = tested on: HOP-62 NSCLC
SK-MEL-2 melanoma = tested on: SK-MEL-2 melanoma
A498 renal = tested on: A498 renal
MOLT-4 leukemia = tested on: MOLT-4 leukemia
COLO 205 colon = tested on: COLO 205 colon
SF-268 CNS = tested on: SF-268 CNS
XF 498 CNS = tested on: XF 498 CNS
786-0 renal = tested on: 786-0 renal
SK-OV-3 ovarian = tested on: SK-OV-3 ovarian

Measured: TGI

CCCCCCNC(=O)CCN(C(=O)O)S(=O)(=O)c1ccc(NC(=O)c2ccccc2)cc1
> 66.2 µM: A549 NSCLC
52.3 µM: CCRF-CEM leukemia
> 71.1 µM: K-562 leukemia
> 69.6 µM: UACC-257 melanoma
> 53.1 µM: DMS 114 small cell lung
> 64.2 µM: HL-60(TB) leukemia
54.4 µM: RPMI-8226 leukemia
43.2 µM: DLD-1 colon
> 60.1 µM: MOLT-4 leukemia
38.4 µM: SF-539 CNS
42.3 µM: U251 CNS
30.6 µM: SW-620 colon
> 77.7 µM: UACC-62 melanoma
> 62.2 µM: LOX IMVI melanoma | NCI-H460 lung
> 81.6 µM: M19-MEL melanoma
> 55.2 µM: DMS 273 small cell lung
> 58.4 µM: HCT-15 colon
> 59.8 µM: COLO 205 colon
> 59.5 µM: HCT-116 colon
53.8 µM: SR leukemia
> 100 µM: all other assays above

CCCC(O)c1ccc2[nH]c3c(C)cc([N+](=O)[O-])c(C)c3c2c1 (configuration not stated)
not listed: U251 CNS | KM20L2 colon | HOP-92 NSCLC | IGROV1 ovarian | RXF 393 renal | UACC-62 melanoma | LXFL 529 NSCLC | A498 renal | SK-OV-3 ovarian
> 100 µM: all other assays above

Cc1nc2ccccc2c(=O)n1/N=C(\N=Nc1cc(Cl)ccc1Cl)c1ccc(N(C)C)cc1
93.6 µM: DMS 114 small cell lung
83 µM: HOP-62 NSCLC
8.35 µM: XF 498 CNS
56.5 µM: HL-60(TB) leukemia
79.8 µM: CAKI-1 renal
81.8 µM: RXF 393 renal
92.3 µM: NCI-H522 lung
not listed: OVCAR-3 ovarian | HOP-92 NSCLC | NCI-H226 lung | SR leukemia | UACC-257 melanoma | MALME-3M melanoma | SNB-78 CNS | SF-295 CNS | KM12 colon | OVCAR-5 ovarian | M14 melanoma | HCC-2998 colon | OVCAR-4 ovarian | SNB-75 CNS | SK-MEL-2 melanoma
> 100 µM: all other assays above

CSCSCC(CO)NC(=O)/C=C/c1c(C)[nH]c(=O)[nH]c1=O (configuration not stated)
not listed: IGROV1 ovarian | NCI-H522 lung | HOP-62 NSCLC | COLO 205 colon | XF 498 CNS | SK-OV-3 ovarian
> 100 µM: all other assays above
